Earlier results as cited in patent US20130130972A1, “ARTIFICIAL SWEETNERS AND PERFORMANCE” (priority 2010, published 2013).
Where a SMILES comes first, the peptide text is derived from it.

Details: typically perceived sweetness, relative to sugar

## CC1(C)[C@@H](O[C@H]2O[C@H](C(=O)O)[C@@H](O)[C@H](O)[C@H]2O[C@@H]2O[C@H](C(=O)O)[C@@H](O)[C@H](O)[C@H]2O)CC[C@]2(C)[C@H]3C(=O)C=C4[C@@H]5C[C@@](C)(C(=O)O)CC[C@]5(C)CC[C@@]4(C)[C@]3(C)CC[C@@H]12 [Glycyrrhizin]
  Sweetness by weight compared to sugar: 50×

## Brazzein (QDKCKKVYENYPVSKCQLANQCNYDCKLDKHARSGECFYDEKRNLQCICDYCEY; UniProt P56552 1-54, looked up) [natural sugar substitute]
  Sweetness by weight compared to sugar: 800×

## CC1=CC(=O)NS(=O)(=O)O1.COC(=O)[C@H](Cc1ccccc1)NC(=O)[C@@H](N)CC(=O)O [Salt of aspartame-acesulfame] (H-Asp-Phe-OMe)
  Sweetness by weight compared to sugar: 350×

## O=C(CO)[C@@H](O)[C@@H](O)[C@H](O)CO [Tagatose]
  Sweetness by weight compared to sugar: 0.92×

## OC[C@H]1O[C@H](O[C@]2(CCl)O[C@H](CCl)[C@@H](O)[C@@H]2O)[C@H](O)[C@@H](O)[C@H]1Cl [Sucralose]
  Sweetness by weight compared to sugar: 600×

## OC[C@@H](O)[C@@H](O)CO [Erythritol]
  Sweetness by weight compared to sugar: 0.7×

## CC1=CC(=O)NS(=O)(=O)O1 [Acesulfame potassium]
  Sweetness by weight compared to sugar: 200×

## OC[C@@H](O)[C@@H](O[C@H]1O[C@H](CO)[C@@H](O)[C@H](O)[C@H]1O)[C@H](O)[C@@H](O)CO [Maltitol]
  Sweetness by weight compared to sugar: 0.9×

## COC(=O)[C@H](Cc1ccccc1)NC(=O)[C@H](CC(=O)O)NCCC(C)(C)C [Neotame]
  Sweetness by weight compared to sugar: 8000×

## C[C@@H](NC(=O)[C@@H](N)CC(=O)O)C(=O)NC1C(C)(C)SC1(C)C [Alitame]
  Sweetness by weight compared to sugar: 2.000×

## OC[C@@H](O)[C@H](O)[C@@H](O)CO [Xylitol]
  Sweetness by weight compared to sugar: 1.0×

## Thaumatin
  Sweetness by weight compared to sugar: 2000×

## CCCOc1ccc([N+](=O)[O-])cc1N [P-4000]
  Sweetness by weight compared to sugar: 4000×

## Monellin
  Sweetness by weight compared to sugar: 3000×

## OC[C@@H](O)[C@@H](O)[C@H](O)[C@H](O)CO [Mannitol]
  Sweetness by weight compared to sugar: 0.5×

## OC[C@@H](O)[C@@H](O)[C@H](O)[C@@H](O)CO [Sorbitol]
  Sweetness by weight compared to sugar: 0.6×

## COc1ccc(CCC(=O)c2c(O)cc(O[C@@H]3O[C@H](CO)[C@@H](O)[C@H](O)[C@H]3O[C@@H]3O[C@@H](C)[C@H](O)[C@@H](O)[C@H]3O)cc2O)cc1O [Neohesperidin dihydrochalcone]
  Sweetness by weight compared to sugar: 1500×

## OC[C@@H](O)[C@@H](O[C@@H]1O[C@H](CO)[C@H](O)[C@H](O)[C@H]1O)[C@H](O)[C@@H](O)CO [Lactitol]
  Sweetness by weight compared to sugar: 0.4×

## COC(=O)[C@H](Cc1ccccc1)NC(=O)[C@@H](N)CC(=O)O [Aspartame] (H-Asp-Phe-OMe)
  Sweetness by weight compared to sugar: 160-200×

## Glucin
  Sweetness by weight compared to sugar: 300×

## O=C1NS(=O)(=O)c2ccccc21 [Saccharin]
  Sweetness by weight compared to sugar: 300×

## OCC(O)CO [Glycerol]
  Sweetness by weight compared to sugar: 0.6×

## CCOc1ccc(NC(N)=O)cc1 [Dulcin]
  Sweetness by weight compared to sugar: 250×

## Pentadin
  Sweetness by weight compared to sugar: 500×

## Curculin
  Sweetness by weight compared to sugar: 550×

## Mabinlin [Mabinlin Protein]
  Sweetness by weight compared to sugar: 100×
